From patent US7378437B2, “Drugs for diabetes” (NICOX S.A., priority 2000, dated 2008)
Values belong to the compound of their own block, whether it stands above or below them.

Assays:
[1] = system: aorta of insulin-resistant rats; experiment: Vasorelaxing effect in vitro on isolated aorta of insulin-resistant (fructose-rich diet) rats, precontracted with phenylephrine, with or without LNNA; assay type: cell-based, rat; settings: for vasorelaxing effect in conditions of experimental diabetes (in words): aorta of insulin-resistant rats, in the presence and in absence of LNNA; for % Relaxation, Aorta with LNNA / % Relaxation, Aorta Without LNNA: phenylephrine 10 μM precontracted, percentage with respect to non insulin-resistant controls
Procedure: To evaluate the strengthening effect of the drugs of the invention on the antidiabetic activity of insulin, animals (rats) are treated with a fructose rich diet (Am. J. Physiol. 275, R788-R792, 1998). In this way an insulinic resistance is induced in the animals.
The pharmacological test is a test in vitro and consists in determining the vasorelaxing activity induced by the products of the invention, measured on an isolated vessel (aorta) taken from animals treated as above mentioned. The test in vitro is carried out both in the presence and in absence of LNNA (N-nitro-L-Arginine), which is an irreversible inhibitor of the nitric oxide synthethases, to verify if the vasorelaxing effect depends on the protective endogenous substances (nitric oxide).
The capability of the compounds of the invention to exert a vasorelaxing effect both in the presence and in absence of vasoprotective substances in such conditions of experimental diabetes, (animals with a fructose rich diet, and treated with or without LNNA), is an index which allows to evaluate the antidiabetic action of the tested compound.
In the pharmacological experiment isolated vessels are used, taken from rats which have developed, as said, an insulinic resistance condition induced by administering for 4 weeks a fructose rich diet.
Male Sprague Dawley rats having an average weight equal to 150-200 g were sacrificed and bled. The abdomi-nal aorta was removed and suitably prepared for determining the myorelaxing activity in vitro according to the method described by Vogel G. H. et al., Drug Discovery Evaluation-Pharmacological Assays page 32, 1996.
A part of the specimen is treated with LNNA.
The tissues are precontracted with phenylephrine (10 μM) and the relaxation was determined in the presence or in absence of the compounds of the invention or of the reference standards. […] The results are reported in Table 1 and are expressed as a percentage with respect to the vasorelaxing effect measured in the controls.

Structure (SMILES): COc1ccc2c(c1)c(CC(=O)Oc1cccc(CO[N+](=O)[O-])c1)c(C)n2C(=O)c1ccc(Cl)cc1 [Ex. 3 comp., 1-(4-chlorobenzoyl)-5-methoxy-2-methyl-3-indolacetic acid 3′-(nitroxymethyl)phenyl ester, reference compound]
vasorelaxing effect in conditions of experimental diabetes (in words) [1]: did not result active | % Relaxation, Aorta with LNNA ([1]; concentration 10^−6 M): 20% | % Relaxation, Aorta Without LNNA ([1]; concentration 10^−6 M): 20%

Structure (SMILES): CC(=O)Oc1ccccc1C(=O)OCc1cccc(CO[N+](=O)[O-])n1.Cl [Ex. 1, 2-acetoxybenzoic acid 6-(nitroxymethyl)-2-methylpyridinyl ester hydrochloride]
% Relaxation, Aorta with LNNA ([1]; concentration 10^−5 M): 70% | % Relaxation, Aorta Without LNNA ([1]; concentration 10^−5 M): 93%

Structure (SMILES): CN(C)C(=N)N=C(N)N [Metformin, reference compound]
vasorelaxing effect in conditions of experimental diabetes (in words) [1]: active only in the absence of the inhibitor of the NO synthesis | % Relaxation, Aorta with LNNA ([1]; concentration 10^−4 M): 30% | % Relaxation, Aorta Without LNNA ([1]; concentration 10^−4 M): 90%

Structure (SMILES): CC(=O)Oc1ccccc1C(=O)Oc1cccc(CO[N+](=O)[O-])c1 [Ex. 2, 3-nitrooxymethylphenyl ester of the 2-acetoxybenzoic acid]
% Relaxation, Aorta with LNNA ([1]; concentration 10^−4 M): 70% | % Relaxation, Aorta Without LNNA ([1]; concentration 10^−4 M): 70%

melting point: 86 to 88 °C
Structure (SMILES): CC(=O)Oc1ccccc1C(=O)Oc1ccc(CO[N+](=O)[O-])cc1 [Ex. 6, 2-(acetyloxy)benzoic acid 4-(nitroxymethyl) phenyl ester]
% Relaxation, Aorta with LNNA ([1]; concentration 10^−5 M): 65% | % Relaxation, Aorta Without LNNA ([1]; concentration 10^−5 M): 90%
